In ChEMBL document CHEMBL1156290, “Identification of amide bioisosteres of triazole oxytocin antagonists” (Bioorg Med Chem Lett, 2010):

What was measured:
Type in all cases: functional
Oxytocin receptor = target: T1, Oxytocin receptor (Homo sapiens, UniProt P30559); assay: Antagonist activity at human cloned OT receptor by cell based beta-lactamase reporter gene assay
T1 sequence (P30559 whole entry): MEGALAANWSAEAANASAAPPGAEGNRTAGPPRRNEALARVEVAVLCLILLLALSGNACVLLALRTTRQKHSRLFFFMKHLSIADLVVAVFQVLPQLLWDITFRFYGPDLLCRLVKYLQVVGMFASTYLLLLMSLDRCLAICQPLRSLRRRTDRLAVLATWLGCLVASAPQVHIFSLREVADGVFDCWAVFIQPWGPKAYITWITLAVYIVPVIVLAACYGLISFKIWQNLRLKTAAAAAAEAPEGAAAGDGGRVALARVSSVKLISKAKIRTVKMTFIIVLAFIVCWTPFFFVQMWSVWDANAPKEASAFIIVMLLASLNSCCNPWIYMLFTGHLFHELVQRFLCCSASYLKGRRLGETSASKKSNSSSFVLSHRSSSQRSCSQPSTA

Vasopressin V1a receptor = Vasopressin V1a receptor (Homo sapiens, UniProt P37288); assay: Antagonist activity at human cloned vasopressin V1A receptor by cell based beta-lactamase reporter gene assay
Vasopressin V2 receptor = Vasopressin V2 receptor (Homo sapiens, UniProt P30518); assay: Antagonist activity at human cloned vasopressin V2 receptor by cell based beta-lactamase reporter gene assay
[1] = target: T2, Vasopressin V1b receptor (Homo sapiens) (UniProt P47901); assay: Antagonist activity at human cloned vasopressin V1B receptor at 10 uM by cell based beta-lactamase reporter gene assay; set-up: scale not given: the % may be the effect or the level left
T2 sequence (whole entry): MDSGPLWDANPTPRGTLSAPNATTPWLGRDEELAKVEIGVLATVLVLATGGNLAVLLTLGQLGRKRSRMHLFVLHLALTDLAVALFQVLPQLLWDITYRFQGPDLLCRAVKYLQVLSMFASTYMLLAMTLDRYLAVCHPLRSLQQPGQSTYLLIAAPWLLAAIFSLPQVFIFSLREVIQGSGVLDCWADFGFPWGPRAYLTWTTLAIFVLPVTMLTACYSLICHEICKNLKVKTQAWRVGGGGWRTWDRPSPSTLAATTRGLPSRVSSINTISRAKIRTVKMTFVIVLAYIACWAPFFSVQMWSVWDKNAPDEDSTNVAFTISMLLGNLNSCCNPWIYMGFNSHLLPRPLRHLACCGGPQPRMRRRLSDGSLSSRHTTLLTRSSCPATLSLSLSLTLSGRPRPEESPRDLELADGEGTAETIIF

Sequence of Vasopressin V1a receptor (P37288 whole entry): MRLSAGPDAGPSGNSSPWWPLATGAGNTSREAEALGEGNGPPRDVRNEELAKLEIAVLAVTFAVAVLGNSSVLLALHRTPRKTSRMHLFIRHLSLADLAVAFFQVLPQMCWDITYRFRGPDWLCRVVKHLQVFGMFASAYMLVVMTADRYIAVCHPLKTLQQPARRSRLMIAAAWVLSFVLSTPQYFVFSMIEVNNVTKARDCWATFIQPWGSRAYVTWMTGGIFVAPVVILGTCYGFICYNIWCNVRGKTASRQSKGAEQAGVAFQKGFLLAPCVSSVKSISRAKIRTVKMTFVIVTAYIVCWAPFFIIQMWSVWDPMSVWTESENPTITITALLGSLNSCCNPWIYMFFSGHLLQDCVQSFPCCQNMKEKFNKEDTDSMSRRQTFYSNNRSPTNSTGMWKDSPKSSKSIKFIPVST
Sequence of Vasopressin V2 receptor (P30518 whole entry): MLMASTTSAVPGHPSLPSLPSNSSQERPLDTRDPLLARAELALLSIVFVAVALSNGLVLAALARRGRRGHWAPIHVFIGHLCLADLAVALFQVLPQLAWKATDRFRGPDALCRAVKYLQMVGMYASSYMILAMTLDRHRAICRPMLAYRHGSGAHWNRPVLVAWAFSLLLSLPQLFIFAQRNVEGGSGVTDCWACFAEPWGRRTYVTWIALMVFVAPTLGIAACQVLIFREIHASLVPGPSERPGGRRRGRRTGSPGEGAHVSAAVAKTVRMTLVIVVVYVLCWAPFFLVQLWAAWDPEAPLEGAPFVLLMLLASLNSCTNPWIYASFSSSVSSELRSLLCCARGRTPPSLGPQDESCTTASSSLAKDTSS

Row | SMILES | Ki (Oxytocin receptor) [nM] | Ki (Vasopressin V1a receptor) [nM] | Ki (Vasopressin V2 receptor) [nM] | Activity [1] [%]
1 | CCN(C(=O)c1ccc(-c2ccc(OC)cc2)[nH]c1=O)c1ccc(OC)nc1 | 84 | – | – | –
2 | COc1ccc2oc(C(=O)N(C)c3ccc(OC)nc3)cc2c1 | 232 | – | – | –
3 | CCN(C(=O)c1cnc(-c2cccc(C)c2C)cn1)c1ccc(OC)nc1 | 25 | 472 | 2830 | < 20
4 | COc1ccc(N(C(=O)c2cnc(-c3cccc(C)c3C)cn2)C(C)C)cn1 | 14 | > 10000 | 2300 | –
5 | CCN(C(=O)c1cnc(-c2cccc(F)c2C)cn1)c1ccc(OC)nc1 | 29 | 5900 | 343 | –
6 | COc1ccc(N(C(=O)c2cnc(-c3ccccc3C)cn2)C(C)C)cn1 | 150 | > 10000 | > 10000 | –
7 | CCN(C(=O)COc1ccc2ccccc2c1)c1ccc(OC)nc1 | 48 | – | – | –
8 | COCCN(C(=O)c1cnc(-c2ccc(C#N)cc2C)cn1)c1ccc(OC)nc1 | 433 | 12000 | > 10000 | –
9 | CCN(C(=O)c1ccc(-c2ccccc2)[nH]c1=O)c1ccc(OC)nc1 | 97 | – | – | –
10 | CCN(C(=O)c1cnn(-c2ccccc2)c1C)c1ccc(OC)nc1 | 85 | – | – | –
11 | COc1ccc(N(C)C(=O)c2cnc(-c3ccccc3C)cn2)cn1 | 92 | 1100 | > 10000 | –
12 | COCCN(C(=O)c1cnc(-c2cccc(C)c2C)cn1)c1ccc(OC)nc1 | 11 | 539 | 2400 | < 20
13 | CCN(C(=O)c1cnc(-c2ccc(C#N)cc2C)cn1)c1ccc(OC)nc1 | 393 | 7200 | > 10000 | –
14 | CCN(C(=O)c1cc2cc(OC)ccc2o1)c1ccc(OC)nc1 | 85 | – | – | –
15 | COc1ccc(N(C)C(=O)c2ccc(-c3ccccc3)cc2)cn1 | 90 | – | – | –
16 | CCN(C(=O)c1cnn(-c2ccc(OC)cc2)c1C)c1ccc(OC)nc1 | 91 | – | – | –
17 | COCCN(C(=O)c1cnc(-c2ccccc2C)cn1)c1ccc(OC)nc1 | 115 | 3300 | > 10000 | –
18 | COCCN(C(=O)c1cnn(-c2ccccc2)c1C)c1ccc(OC)nc1 | 98 | – | – | –
19 | COc1ccc(N(C)C(=O)c2cnc(-c3ccc(C#N)cc3C)cn2)cn1 | 620 | > 10000 | > 10000 | –
20 | CCN(C(=O)c1cc(-c2ccc(C)cc2)n[nH]1)c1ccc(OC)nc1 | 41 | – | – | –
21 | CCN(C(=O)COc1ccc(C(C)C)cc1)c1ccc(OC)nc1 | 251 | – | – | –
22 | COc1ccc(N(C)C(=O)c2cnc(-c3ccc(F)cc3C)cn2)cn1 | 218 | 2000 | – | –
23 | CCN(C(=O)c1cnc(-c2ccccc2C)cn1)c1ccc(OC)nc1 | 129 | 2300 | > 10000 | –
